Biological target: T1, RORγt (Homo sapiens, UniProt P51449)
T1 construct: expressed in transfected cells
T1 sequence (P51449 269-508 limits assumed): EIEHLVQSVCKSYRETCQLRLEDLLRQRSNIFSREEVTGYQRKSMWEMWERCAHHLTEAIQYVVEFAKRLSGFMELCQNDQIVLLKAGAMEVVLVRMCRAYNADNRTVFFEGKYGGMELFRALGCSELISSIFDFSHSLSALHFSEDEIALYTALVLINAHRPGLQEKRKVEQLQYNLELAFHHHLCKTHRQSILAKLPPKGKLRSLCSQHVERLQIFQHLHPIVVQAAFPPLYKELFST
Assay: RGA Assay: nuclear receptor transactivation assay, RORγt transactivation of a luciferase reporter
Format: cell-based
Conditions: transiently transfected HEK 293 cells (pGL4.3 luc2P/GAL4UAS, pBIND Gal4DBD hRORC LBD), 20-24 hours incubation, luciferase readout
Method: A nuclear receptor transactivation assay was performed to quantitate the ability of test compounds to inhibit RORγt transactivation of a luciferase reporter. A similar assay is described in: Khan et al., Bioorganic & Medicinal Chemistry Letters 23 (2013), 532-536. The system uses transiently transfected HEK 293 cells cotransfected with two plasmids (pGL4.3, luc2P/GAL4UAS/Hygro, and pBIND, Ga14DBD hRORC LBD1-3). The positive control is co-transiently transfected with both plasmids, and the negative control contains the pGL4.3 promoter sequence. Assays were assembled in 384 well plates where transiently transfected cells and test compound at varying concentrations were incubated for 20-24 hours. The next day, assays plates are taken out and equillibrated at RT for 20-30 minutes. Bright-Glo™ Luciferase Assay System is used to detect Luciferase production. After addition of Bright GLO detection reagent, the plates were incubated at RT for 20 minutes. The plates were read on an Envision plate reader to measure luminescence signal. The RLU signal is converted to POC relative to control and blank wells.
Compound Dilution Buffer:
Bright Glo Luciferase Assay System: Promega #E2620
Thaw lysis buffer provided in kit, add 100 mL lysis buffer to substrate powder.

Row | Structure (SMILES) | IC50
1 | COC1CCCN(c2ccc(-c3ccc4c(n3)C3(CCCC3)CN4C(=O)NCc3ccc(S(C)(=O)=O)cc3)c(C)n2)C1 (stereo not shown) [Example 6] | 24 µM
2 | CCS(=O)(=O)c1ccc(CNC(=O)N2CC3(CCCC3)c3nc(-c4ncc(C(F)(F)F)cn4)ccc32)cc1 [Example 38] | > 30 µM
3 | CS(=O)(=O)c1ccc(CNC(=O)N2CC3(CCCC3)c3nc(Oc4ccc(C(F)(F)F)nc4)ccc32)cc1 [Example 59] | > 30 µM
4 | CCOc1ncnc(C2CC2)c1-c1ccc2c(n1)C1(CCCC1)CN2C(=O)NCc1ccc(S(C)(=O)=O)cc1 [Example 69] | 1.1 µM
5 | CCS(=O)(=O)c1ccc(CNC(=O)N2CC3(CCCC3)c3nc(-c4cc(CN5CC[C@@H](O)C5)ccc4C4CC4)ccc32)cc1 [Example 82] | 7 µM
6 | CCS(=O)(=O)c1ccc(CNC(=O)N2CC3(CCCC3)c3nc(-c4c(C)ncnc4C4CC4)ccc32)cc1 [Example 79] | 0.38 µM
7 | Cc1cc(F)ccc1-c1cc2c(cn1)N(C(=O)NCc1ccc(S(C)(=O)=O)cc1)CC2(C)C [Example 89] | > 30 µM
8 | CCS(=O)(=O)c1ccc(CNC(=O)N2CC3(CCCC3)c3nc(-c4cncnc4C(C)C)ccc32)cc1 [Example 25] | 1.2 µM
9 | COc1cc(C)c(-c2ccc3c(n2)C(C)(C)CN3C(=O)NCc2ccc(C#N)cc2)cn1 [Example 3] | > 30 µM
10 | CCS(=O)(=O)c1ccc(CNC(=O)N2CC(C)(C)c3cc(-c4c(OC)ncnc4C4CC4)ncc32)cc1 [Example 94] | 3.8 µM
11 | CCS(=O)(=O)c1ccc(CNC(=O)N2CC3(CCCC3)c3nc(-c4c(OC)ncnc4C(F)(F)F)ccc32)cc1 [Example 74] | 0.31 µM
12 | CCS(=O)(=O)c1ccc(CNC(=O)N2CC3(CCCC3)c3nc(-c4sc(OC)nc4C)ccc32)cc1 [Example 27] | 8 µM
13 | Cc1nc(N2CCOCC2)ccc1-c1ccc2c(n1)C1(CCCC1)CN2C(=O)NCc1ccc(S(C)(=O)=O)cc1 [Example 5] | > 30 µM
14 | CCS(=O)(=O)c1ccc(CNC(=O)N2CC(C)(C)c3nc(-c4c(OC)ncnc4C(F)(F)F)ccc32)cc1 [Example 81] | 1.5 µM
15 | CCS(=O)(=O)c1ccc(CNC(=O)N2CC3(CCCC3)c3nc(-c4ccc(F)cc4C)ccc32)cc1 [Example 14] | 3.4 µM
16 | Cc1cc(O)ccc1-c1ccc2c(n1)C(C)(C)CN2C(=O)NCc1ccc(C#N)cc1 [Example 2] | > 30 µM
17 | COc1ccc(-c2ccc3c(n2)C2(CCCC2)CN3C(=O)NCc2ccc(S(C)(=O)=O)cc2)c(C(F)(F)F)c1 [Example 52] | 0.93 µM
18 | COc1cc(C)c(-c2cc3c(cn2)N(C(=O)NCc2ccc(S(C)(=O)=O)cc2)CC3(C)C)cn1 [Example 90] | > 30 µM

Continued, values first:

Row | IC50 | Structure (SMILES)
19 | 0.84 µM | Cc1ncnc(C2CC2)c1-c1ccc2c(n1)C1(CCCC1)CN2C(=O)NCc1ccc(S(C)(=O)=O)cc1 [Example 80]
20 | 0.65 µM | COc1ncnc(C2CC2)c1-c1ccc2c(n1)C1(CCCC1)CN2C(=O)NCc1ccc(S(C)(=O)=O)cc1 [Example 66]
21 | 5.9 µM | CCS(=O)(=O)c1ccc(CNC(=O)N2CC3(CCCC3)c3nc(-c4c(C)ncnc4C)ccc32)cc1 [Example 24]
22 | 10 µM | COc1cc(C)c(-c2ccc3c(n2)C(C)(C)CN3C(=O)NCc2ccc(S(C)(=O)=O)cc2)cn1 [Example 19]
23 | 6.9 µM | CCS(=O)(=O)c1ccc(CNC(=O)N2CC3(CCCC3)c3nc(-c4cc(CN5CC[C@H](O)C5)ccc4C4CC4)ccc32)cc1 [Example 83]
24 | 5.2 µM | CNS(=O)(=O)c1ccc(CNC(=O)N2CC3(CCCC3)c3nc(-c4cnc(OC)cc4C)ccc32)cc1 [Example 57]
25 | 1.4 µM | Cc1cc(O)ccc1-c1ccc2c(n1)C1(CCCC1)CN2C(=O)NCc1ccc(S(C)(=O)=O)cc1 [Example 54]
26 | > 30 µM | CCS(=O)(=O)c1ccc(CNC(=O)N2CC3(CCCC3)c3nc(-c4cc(CN5CC[C@H](O)C5)ccc4C)ccc32)cc1 [Example 85]
27 | 11 µM | COCCOc1cc(C#N)ccc1CNC(=O)N1CC2(CCCC2)c2nc(-c3cncnc3C(C)C)ccc21 [Example 34]
28 | 7.6 µM | CNS(=O)(=O)c1ccc(CNC(=O)N2CC3(CCCC3)c3nc(Oc4cnc(C)cc4C)ccc32)cc1 [Example 61]
29 | 8.5 µM | Cc1cc(C)c(Oc2ccc3c(n2)C2(CCCC2)CN3C(=O)NCc2ccc(S(C)(=O)=O)cc2)cn1 [Example 60]
30 | 2.1 µM | CCS(=O)(=O)c1ccc(CNC(=O)N2CC3(CCCC3)c3nc(-c4cncnc4C(F)(F)F)ccc32)cc1 [Example 35]
31 | 9.1 µM | CNS(=O)(=O)c1ccc(CNC(=O)N2CC(C)(C)c3nc(-c4cncnc4C(C)C)ccc32)cc1 [Example 45]
32 | > 30 µM | CCS(=O)(=O)c1ccc(CNC(=O)N2CC3(CCCC3)c3cc(Cl)ncc32)cc1 [Example 96]
33 | 2.8 µM | CCC1(C)CN(C(=O)NCc2ccc(S(=O)(=O)CC)cc2)c2ccc(-c3cncnc3C(C)C)nc21 (stereo not shown) [Example 72]
34 | 1.6 µM | CNS(=O)(=O)c1ccc(CNC(=O)N2CC3(CCCC3)c3nc(-c4ccc(F)cc4C)ccc32)cc1 [Example 1]
35 | 4.1 µM | COc1ccc(-c2ccc3c(n2)C2(CCCC2)CN3C(=O)NCc2ccc(C#N)cc2)c(C(F)(F)F)c1 [Example 46]
36 | 1.1 µM | CNS(=O)(=O)c1ccc(CNC(=O)N2CC3(CCCC3)c3nc(-c4cncnc4C(C)C)ccc32)cc1 [Example 55]
37 | > 30 µM | COC1CCN(c2ccc(-c3ccc4c(n3)C3(CCCC3)CN4C(=O)NCc3ccc(S(C)(=O)=O)cc3)c(C)n2)CC1 [Example 7]

From US9745297B2, “Compounds as modulators of RORC” (Boehringer Ingelheim International GmbH, priority 2013, dated 2017)
